{
  "source": "patent US12264175B2",
  "about": "“Compositions and methods for capping RNAS” (Verve Therapeutics, Inc., priority 2020, dated 2025)",
  "key": {"mouse PCSK9 (mPCSK9)": {"test_system": "mouse PCSK9 (mPCSK9)", "experiment": "In vivo base editing in mouse with LNP of sgRNA and capped ABE mRNA (NGS editing efficiency)", "conditions": "LNP with sgRNA targeting mPCSK9 and ABE mRNA; mice; FIG. 7", "experimental": "Lipid nanoparticles (LNPs) are generated by microfluidic mixing using the Precision Nanosystems NanoAssemblr system according to the manufacturer's protocol, with some optimization for individual payloads. The resulting LNPs are filtered using 0.2-micron filters and stored at 4° C. or frozen at […]\nLNPs used in these studies are prepared as described above in Example 6 (A), comprising chemically synthesized sgRNAs targeting the mouse ANGPTL3 (mANGPTL3) and/or mouse PCSK9 (mPCSK9) genes and SpCas9 or ABE8.8 mRNA in a 1:1 weight ratio, are administered to C57BL/6 mice (n=5) intravenously via the lateral tail vein or retro-orbital sinus in a total volume of 5-10 ml/kg. […]\nPaired-end reads are analyzed with the CRISPResso2 pipeline (Clement, K. et al., Nat. Biotech. 2019, 37, 224-226). Briefly, low-quality reads are filtered out, adapter sequences are trimmed from the reads, and the paired-end reads are merged and aligned to the amplicon sequence. The editing percentage is calculated as the number of reads supporting […], over the total number of aligned reads. For ABE, the editing percentage is calculated as the number of reads supporting […], over the total number of aligned reads. […]"}, "[1]": {"test_system": "primary human liver hepatocytes (hPH)", "experiment": "ABE protein levels by ELISA after mRNA transfection of primary human hepatocytes", "assay_type": "cell-based", "conditions": "ABE mRNA transfected to hPH cells, FIG. 6", "experimental": "Primary human liver hepatocytes (hPH), primary cynomolgus liver hepatocytes (cPH), or primary mouse liver hepatocytes (mPH) are cultured per the manufacturer's protocol. In brief, the cells are thawed and resuspended in hepatocyte thawing medium followed by centrifugation at 100 g for 10 min at 4° C. The supernatant is discarded, and the pelleted cells resuspended in hepatocyte plating medium. Each vial contains ˜5 million cells that are used for plating one 24-well plate. Plated cells are allowed to settle and adhere for 4-6 h in a tissue culture incubator at 37° C. under 5% CO2 atmosphere. After incubation, cells are checked for monolayer formation. The incubating media is then replaced with fresh hepatocyte maintenance media The cells thus are ready for transfection using a transfection agent such as MessengerMAX. Solution A: desired amount of single guide RNA (sgRNA) is mixed with 1:1 wt ratio of mRNA in OptiMEM. Solution B: MessengerMAX in OptiMEM. After mixing solutions A and B, the mixture is incubated at room temperature for 20 minutes, and then the incubated solution is added dropwise to each well of cells. The cells are then allowed to remain at 37° C. for 3 days. […] For example, mRNA with 5′ end region motifs, 1007a and 1107a, were transfected to hPH cells as described above, the cells were lysed, and ABE protein levels were measured by ELISA. […]"}},
  "data": [
    {"smiles": "COC1C(OP([O-])(=S)OCC2OC(n3cnc4c(=O)[nH]c(N)nc43)C(O)C2O)C(COP(=O)(O)OP(=O)(O)OP(=O)(O)OCC2OC(n3c[n+](C)c4c(=O)[nH]c(N)nc43)C(O)C2O)OC1n1cnc2c(N)ncnc21", "note": "(centres unmarked) [1007a, m^7G(ppp)Am(ps)G]", "values": [
      {"measurement": "hepatocyte editing levels as compared to mRNA with 5′ end region motif 1002a", "setting": "mouse PCSK9 (mPCSK9)", "value": "similar"},
      {"measurement": "ABE protein levels as compared to mRNA with 5′ end region motif 1002a", "setting": "[1]", "value": "similar"}
    ]}
  ]
}
